Here are results for 13 compounds from patent publication US8299048B2, “Hexahydrocyclopentyl[f]indazole sulfonamides and derivatives thereof as selective glucocorticoid receptor modulators” (Merck Sharp & Dohme Corp., priority 2008, dated 2012).

Where two headings read alike, the source gives them in different places. A value given as a limit tells only on which side of the number the result lay.

The assay addresses T1, human GR (Homo sapiens, UniProt P04150).
T1 sequence (P04150 1-777): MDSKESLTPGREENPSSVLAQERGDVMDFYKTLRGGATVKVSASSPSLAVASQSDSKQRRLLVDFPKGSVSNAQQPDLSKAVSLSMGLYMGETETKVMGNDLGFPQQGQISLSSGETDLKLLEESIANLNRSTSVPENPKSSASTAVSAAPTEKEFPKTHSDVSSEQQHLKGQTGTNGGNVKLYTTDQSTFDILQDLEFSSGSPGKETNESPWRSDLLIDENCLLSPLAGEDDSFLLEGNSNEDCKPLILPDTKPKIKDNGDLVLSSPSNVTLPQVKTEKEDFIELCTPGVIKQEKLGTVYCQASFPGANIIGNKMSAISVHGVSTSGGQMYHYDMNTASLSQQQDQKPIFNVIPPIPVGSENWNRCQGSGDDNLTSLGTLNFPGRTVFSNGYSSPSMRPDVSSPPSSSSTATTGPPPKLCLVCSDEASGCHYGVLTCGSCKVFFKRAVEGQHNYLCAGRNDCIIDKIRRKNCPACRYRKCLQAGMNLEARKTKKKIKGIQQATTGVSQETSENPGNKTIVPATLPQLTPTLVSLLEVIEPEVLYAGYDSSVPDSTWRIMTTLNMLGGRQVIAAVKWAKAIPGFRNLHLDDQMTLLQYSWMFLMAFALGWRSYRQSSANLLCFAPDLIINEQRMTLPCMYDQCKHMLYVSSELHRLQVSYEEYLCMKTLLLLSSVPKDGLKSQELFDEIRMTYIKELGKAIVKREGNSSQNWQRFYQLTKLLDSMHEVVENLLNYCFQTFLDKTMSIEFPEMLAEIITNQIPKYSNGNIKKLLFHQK
In words: Transrepression Assay (GITAR), TNFα-β-lactamase reporter in U937 cells. The assay is classed as cell-based. Also on record: U937 cells contain an endogenous glucocorticoid receptor (GR); endogenous in cells; host or cells: U937 cells stably transfected with the TNF-alpha promoter/beta-lactamase reporter. The note with it: for GITAR > GRAMM % SEP: GITAR Emax minus GRAMMER Emax; for EC50: U937 cells, inflection point, read-out: Transrepression U937 Cells GITAR IP. The source says: This assay assesses the ability of test compounds to control transcription from the TNFα-β-lactamase reporter gene in U937 cells, a human myelomonocytic leukemia cell line that naturally expresses the human GR. The assay measures compound dependent-repression of the TNFa promoter linked to a reporter gene.
The human U937 cells that had been stablely transfected with the TNF-α promoter driving β-lactamase are used for this assay. U937 cells contain an endogenous glucocorticoid receptor (GR). Cells are maintained in RPMI 1640 Growth medium (Gibco Cat#11875-093) containing 25 mM HEPES, 10% FBS, 2 mM L-Glutamine, 1 mM Sodium pyruvate, 25 μg/ml Gentamicin (Gibco Cat#15710-064), 1:1000 2-Mercaptoethanol (Gibco Cat#21985-023) and 0.8 mg/ml G418 (Gibco Cat#10131-027). The density of the cells in the flask needs to be about 1×10^6−3×10^6/ml at the time of harvest. Usually, the cells are split to 1.2˜1.4×10^5/ml (1:10) 3 days prior to the assay. 50,000 cells/well are plated in 96 well black-walled plates the day of assay. Test compounds are added 10 μL/well, and cells are incubated at 37° C. for 30˜45 min. For assaying compounds, first dilute 1:10 in DMSO to make 1 mM, then further dilute 1:100 in medium to make 10× stock prior to adding to the cells. Add 50 ng/mlPMA (Sigma, cat# P8139) 10 μL/well to a final concentration 5 ng/ml, and 1 μg/ml LPS (Sigma, cat# L4130) 10 μL/well to a final concentration 100 ng/ml. Incubate cells at 37° C. overnight for ˜18 hr. PMA is stored frozen as 100 μg/ml stock in DMSO. Dilute 1:10 in DMSO for a working stock of 10 μg/ml and store at −20 C. For assaying, dilute the 10 μg/ml working stock 1:200 in medium to make a 10× solution (50 ng/ml). Store frozen LPS at 1 mg/ml in PBS, dilute 1:1000 in medium to make 10× (1 μg/ml) for the assay. Add 6× loading buffer (CCF2-AM) 20 μL/well, and incubate at room temperature for 70˜90 min. […] The activity repressed by 100 nM dexamethasone alone is set as 100% activity.

Setting [1] is: U-937, U937 cells, maximum activity, read-out: Transrepression U937 Cells GITAR Emax.
[2] abbreviates: U-937, activity repressed by 100 nM dexamethasone alone set as 100%, read-out: maximal activity in the transrepression (GITAR) assay.

On to `C[C@]12Cc3cnn(-c4ccc(F)cc4)c3C=C1CC[C@@H]2CN(CC1CC1)S(=O)(=O)c1cc(C(F)(F)F)ccc1Cl` [Example 5, 2-chloro-N-(cyclopropylmethyl)-N-{[(4αR,5S)-1-(4-fluorophenyl)-4α-methyl-1,4,4α,5,6,7-hexahydrocyclopenta[f]indazol-5-yl]methyl}-5-(trifluoromethyl)benzenesulfonamide], for which the “GITAR > GRAMM % SEP” value amounted to 16.2% and the EC50 was found to be 0.223 µM. The Emax under setting [1] was found to be 19.2%. In addition, the Emax under setting [2] is > 5%.

For `CC(=O)Nc1ccc(S(=O)(=O)N(CC2CC2)C[C@H]2CCC3=Cc4c(cnn4-c4ccc(F)cc4)C[C@@]32C)cc1` [Example 6, N-{4-[((cyclopropylmethyl){[(4αR,5S)-1-(4-fluorophenyl)-4α-methyl-1,4,4α,5,6,7-hexahydrocyclopenta[f]indazol-5-yl]methyl}amino)sulfonyl]phenyl}acetamide], the “GITAR > GRAMM % SEP” value is reported as 36.0% and the EC50 stood at 1.01 µM. Moreover, the Emax under setting [1] was determined as 49%. In addition, the Emax under setting [2] was > 5%.

Turning to `Cc1nn(C)c(Cl)c1S(=O)(=O)N(CC1CC1)C[C@H]1CCC2=Cc3c(cnn3-c3ccc(F)cc3)C[C@@]21C` [Example 7], the “GITAR > GRAMM % SEP” value came to 19.7% and the EC50 was 0.389 µM. Also, under setting [1], the Emax was 56%. For the same compound, the Emax under setting [2] was > 5%.

Regarding `CN1CCOc2cc(S(=O)(=O)N(CC3CC3)C[C@H]3CCC4=Cc5c(cnn5-c5ccc(F)cc5)C[C@@]43C)ccc21` [Example 8, N-(cyclopropylmethyl)-N-{[(4αR,5S)-1-(4-fluorophenyl)-4α-methyl-1,4,4α,5,6,7-hexahydrocyclopenta[f]indazol-5-yl]methyl}-4-methyl-3,4-dihydro-2H-1,4-benzoxazine-7-sulfonamide], the “GITAR > GRAMM % SEP” value is on record as 12.4% and the EC50 is 0.424 µM. Also, the Emax under setting [1] stood at 17.4%. For the same compound, under setting [2], the Emax was > 5%.

As to `CCCCCc1ccc(S(=O)(=O)N(CC2CC2)C[C@H]2CCC3=Cc4c(cnn4-c4ccc(F)cc4)C[C@@]32C)cc1` [Example 9, N-(cyclopropylmethyl)-N-{[(4αR,5S)-1-(4-fluorophenyl)-4α-methyl-1,4,4α,5,6,7-hexahydrocyclopenta[f]indazol-5-yl]methyl}-4-pentylbenzenesulfonamide], the “GITAR > GRAMM % SEP” value amounted to 15.4% and the EC50 was 0.959 µM. Also, the Emax under setting [1] turned out to be 28.1%. Moreover, the Emax under setting [2] was > 5%.

In the case of `C[C@]12Cc3cnn(-c4ccc(F)cc4)c3C=C1CC[C@@H]2CN(CC1CC1)S(=O)(=O)c1ccc(-c2ccccc2)cc1` [Example 10, N-(cyclopropylmethyl)-N-{[(4αR,5S)-1-(4-fluorophenyl)-4α-methyl-1,4,4α,5,6,7-hexahydrocyclopenta[f]indazol-5-yl]methyl}biphenyl-4-sulfonamide], the “GITAR > GRAMM % SEP” value was 34.4% and the EC50 came out at 0.465 µM. Further, the Emax under setting [1] was determined as 46.6%. The Emax under setting [2] was > 5%.

Consider `Cc1noc(C)c1S(=O)(=O)N(CC1CC1)C[C@H]1CCC2=Cc3c(cnn3-c3ccc(F)cc3)C[C@@]21C` [Example 11, N-(cyclopropylmethyl)-N-{[(4αR,5S)-1-(4-fluorophenyl)-4α-methyl-1,4,4α,5,6,7-hexahydrocyclopenta[f]indazol-5-yl]methyl}-3,5-dimethylisoxazole-4-sulfonamide], for which the “GITAR > GRAMM % SEP” value was determined as 23.1% and the EC50 amounted to 0.206 µM. Besides, the Emax under setting [1] is 89.1%. Further, the Emax under setting [2] was > 5%.

For `CCCS(=O)(=O)N(CCOC)C[C@H]1CCC2=Cc3c(cnn3-c3ccc(F)cc3)C[C@@]21C` [Example 95, N-{[(4αR,5S)-1-(4-fluorophenyl)-4α-methyl-1,4,4α,5,6,7-hexahydrocyclopenta[f]indazol-5-yl]methyl}-N-(2-methoxyethyl)propane-1-sulfonamide], the “GITAR > GRAMM % SEP” value is 2.7% and the EC50 was determined as 0.464 µM. Also, the Emax under setting [1] amounted to 73.1%. Also, the Emax under setting [2] is > 5%.

Consider `COCCN(C[C@H]1CCC2=Cc3c(cnn3-c3ccc(F)cc3)C[C@@]21C)S(C)(=O)=O` [Example 96, N-{[(4αR,5S)-1-(4-fluorophenyl)-4α-methyl-1,4,4α,5,6,7-hexahydrocyclopenta[f]indazol-5-yl]methyl}-N-(2-methoxyethyl)methanesulfonamide], for which the “GITAR > GRAMM % SEP” value worked out at 19.3% and the EC50 amounted to 0.124 µM. Under setting [1], the Emax turned out to be 85%. The Emax under setting [2] is > 5%.

On to `COCCN(C[C@H]1CCC2=Cc3c(cnn3-c3ccc(F)cc3)C[C@@]21C)S(=O)(=O)CC(F)(F)F` [Example 97, 2,2,2-trifluoro-N-{[(4αR,5S)-1-(4-fluorophenyl)-4α-methyl-1,4,4α,5,6,7-hexahydrocyclopenta[f]indazol-5-yl]methyl}-N-(2-methoxyethyl)ethanesulfonamide], for which the “GITAR > GRAMM % SEP” value came out at 2.2% and the EC50 came to 0.049 µM. The Emax under setting [1] came to 85.9%. Further, under setting [2], the Emax is > 5%.

As to `Cn1cc(S(=O)(=O)N(CCc2ccccc2F)C[C@H]2CCC3=Cc4c(cnn4-c4ccc(F)cc4)C[C@@]32C)c(C(F)(F)F)n1` [Example 98, N-[2-(2-fluorophenyl)ethyl]-N-{[(4αR,5S)-1-(4-fluorophenyl)-4α-methyl-1,4,4α,5,6,7-hexahydrocyclopenta[f]indazol-5-yl]methyl}-1-methyl-3-(trifluoromethyl)-1H-pyrazole-4-sulfonamide], the “GITAR > GRAMM % SEP” value turned out to be 13.2% and the EC50 worked out at 0.0643 µM. Also, under setting [1], the Emax was 89.9%. For the same compound, the Emax under setting [2] is > 5%.

Take `C[C@]12Cc3cnn(-c4ccc(F)cc4)c3C=C1CC[C@@H]2CN(CCc1ccccc1F)S(=O)(=O)c1ccccc1C(F)(F)F` [Example 99, N-[2-(2-fluorophenyl)ethyl]-N-{[(4αR,5S)-1-(4-fluorophenyl)-4α-methyl-1,4,4α,5,6,7-hexahydrocyclopenta[f]indazol-5-yl]methyl}-2-(trifluoromethyl)benzenesulfonamide]: the “GITAR > GRAMM % SEP” value is on record as 24.6% and the EC50 amounted to 0.0644 µM. Also, under setting [1], the Emax was determined as 86.8%. Besides, under setting [2], the Emax was > 5%.

In the case of `C[C@]12Cc3cnn(-c4ccc(F)cc4)c3C=C1CC[C@@H]2CN(CCc1ccccc1F)S(=O)(=O)c1ccccc1Cl` [Example 100, 2-chloro-N-[2-(2-fluorophenyl)ethyl]-N-{[(4αR,5S)-1-(4-fluorophenyl)-4α-methyl-1,4,4α,5,6,7-hexahydrocyclopenta[f]indazol-5-yl]methyl}benzenesulfonamide], the “GITAR > GRAMM % SEP” value is given as 14.2% and the EC50 was 0.192 µM. The Emax under setting [1] amounted to 79.1%. Also, under setting [2], the Emax was > 5%.
